Experimental data as given in US20100292229A1, “TRYPHOSTIN-ANALOGS FOR THE TREATMENT OF CELL PROLIFERATIVE DISEASES” (The Board of Regents of the University of Texas System, priority 2006, published 2010).
Where a SMILES comes first, the peptide text is derived from it. The star is where a group is joined. Cbz = O=C(OCc1ccccc1)*

Columns and labels:
[1] = system: p70 and p55 tyrosine phosphorylation; test: Phosphotyrosine (4G10) immunoblot in B-cell malignancy cell lines; assay type: cell-based; details: 2 h; MM-1, LP or Mino cells
Method: MM-1 cells were pretreated with Degrasyn (at the concentration indicated) for 2 h before the addition of IL-6 for 15 min (as noted). Total cell lysates were prepared and equal protein aliquots were resolved by SDS-PAGE and immunoblotted for phosphotyrosine (4G10).
MM-1 and LP (lymphoma) cells were treated with Degrasyn (at the concentration indicated) for 2 h before cell lysates were prepared and equal protein aliquots were resolved by SDS-PAGE and immunoblotted for phosphotyrosine (4G10).
MM-1 and Mino (Mantle cell lymphoma) cells were treated with Degrasyns with different levels of anti-tumor efficacy (at the concentration indicated) for 2 h before cell lysates were prepared and equal protein aliquots were resolved by SDS-PAGE and immunoblotted for phosphotyrosine (4G10).
MM-1 cells were treated as indicated before analysis of cellular tyrosine phosphorylation by immunoblotting. Both p70 and p55 were tyrosine phosphorylated after 15 min of Degrasyn treatment which peaks in intensity after 1 h and remains higher than control levels after 4 h. These early changes may underlie or be a marker of Degrasyn activity in B-cell malignancies.
(§1) Western Blot analysis. Cells were harvested, washed twice in cold 1×PBS and lysed in modified RIPA lysis buffer (150 mM NaCl, 1% NP-40, 0.5% Na-deoxycholate [DOC], 0.1% Na-dodecyl sulfate [SDS], 50 mM Tris-HCl (pH 7.5), 1 mM EDTA, 1 mM NaF, 2 mM Na-vanadate, with protease inhibitors (1 mM PMSF, 1 mM benzamidine, 10 μg/ml aprotinin, 10 μg/ml leupeptin) on ice for 30 min. The lysed cells were centrifuged at 13,000 rpm for 30 min and the supernatant collected. The protein concentration of the cell lysate was determined by the Bradford Protein Assay. Fifty to 60 μg of protein were resolved in a 10% SDS-PAGE, and transferred to a PVDF membrane. Western blotting was performed using specific primary antibodies Peroxidase-conjugated affiniPure anti-Mouse Anti-Rabbit secondary antibodies (Jackson Immunoresearch Laboratories, West Grove, Pa.). The proteins were visualized with ECL Plus reagents (Amersham Biosciences).

MM-1 cells = test: MTT assay of cell growth and survival, MM-1 cells; assay type: cell-based
Method: (§2) All compounds are tested for purity (HPLC, NMR) and the calculated molecular weight is used to make up a 10 mM stock solution of each compound (in 100% dimethylsulfoxide or 50% dimethylsulfoxide:50% polyethylene glycol 300). Compounds are diluted into cell culture media consisting of RPMI 1640 with 10% fetal bovine serum to a final starting concentration of 10 μM. [Highest final DMSO content=0.1%.]. Tumor cells (20,000 for non-adherent cells; 5,000 for adherent cells) are plated into individual wells of a 96-well culture plate in 0.1 ml of culture media. Diluted compounds are added to individual wells containing pre-plated cells (final volume 0.2 ml) and incubated at 37° C. for 24 to 72 h. Wells receiving vehicle alone acted as a control.
(§3) MTT (viability) assay. MTT reagent (20 μl of 5 mg/ml stock solution, Sigma) is added to the cells and the plates are incubated at 37° C. for another 2 h. Cells are lysed by adding 100 μl of lysis buffer (20% SDS in 50% N,N-dimethylformamide (Sigma) adjusted to pH 4.7 by 80% acetic acid and 1 M HCl such that the final concentration of acetic acid is 2.5% and HCl is 2.5%) into each well and incubated for 6 h. The OD570 of each sample is determined by using a SPECTRA MAX M2 plate reader (Molecular Devices). The OD in control and treated wells is used as an estimate of the effect of compounds on cell growth and survival.
Cell lines. […] A375 melanoma cells were grown and maintained in the same media. Ba/F3 parental cells were grown in RPMI 1640 containing 10% heat inactivated fetal bovine serum and 2 mM glutamine supplemented with IL-3 (1 ng/ml) while Ba/F3 cells stably expressing Bcr/Abl or the T315I mutant of Bcr/Abl were grown in RPMI 1640 containing 10% heat inactivated fetal bovine serum and 2 mM glutamine in the absence of IL-3. Normal human dermal fibroblasts (NHDF) were obtained from Cambrex (Walkersville, Md.) and grown in specially formulated media (obtained through Cambrex) with 20% fetal calf serum.
IC50 determinations. The anti-tumor activity of certain compounds of the present invention against MM-1 cell lines was investigated and the IC50 values calculated (FIGS. 33A-F). In a typical experiment, MM-1 cell lines were incubated with a range of compound concentrations for 72 h to determine the concentration required to inhibit cell growth or induce apoptosis by 50% (IC50). MTT assays as described above were used to conduct this analysis.

c-myc = molecular target: T1, c-myc (Homo sapiens, UniProt P01106); test: c-myc protein immunoblot in MM-1 cells; assay type: cell-based; details: for Effect of inhibitor pretreatment on Degrasyn-mediated c-myc protein reduction: inhibitor 2 h, then 5 μM Degrasyn 2 h
T1 construct: endogenous in cells; host or cells: MM-1 cells
Method: Top: MM-1 cells were incubated with 5 μM Degrasyn for the interval noted before cell lysates were prepared and subjected to immunoblotting for c-myc and actin as a protein loading control.
Middle: MM-1 cells were treated with the indicated concentration of Degrasyn for 1 h before lysates were immunoblotted for c-myc and actin.
Bottom: MM-1 cells were treated as indicated before extraction of total RNA (TRIzol). RNA was resolved by agarose electrophoresis, transferred to a membrane and hybridized with a c-myc probe to determine the level of c-myc RNA in each sample. The ethidium bromide stained gel was photographed and 28S RNA content was detected as a measure of RNA content in each lane.
MM-1 cells were pretreated with protease/proteosome inhibitors (LLnL; LLnM; E-64d; MG132; PS341; Chloroquine; Ammonium Chloride; Cycloheximide) for 2 h before the addition of 5 μM Degrasyn or vehicle alone (DMSO as indicated) for an additional 2 h. Cell lysates were prepared and equal protein aliquots were subjected to immunoblotting for c-myc, Max (a c-myc binding partner) or actin as a protein loading control.
Pictured: MM-1 cells were treated with biotinylated Degrasyn (Bio-Deg) or Degrasyn (at the indicated concentration) for 1 h before analyzing effects on c-myc as described in FIG. 15.
as §1

K562 cells = test: MTT assay of cell growth and survival, K562 cells; assay type: cell-based, human; details: FIG. 21; anti-tumor activity
Method: as §2, §3
Cell lines. […]

nucleophosmin (NPM) = molecular target: T2, nucleophosmin (NPM) (Homo sapiens, UniProt P06748); test: Affinity recovery of Degrasyn interactive proteins with streptavidin beads; assay type: binding; details: MM-1 or K562 cell lysates
T2 construct: endogenous in cells; host or cells: MM-1 and K562 cell lysates
Method: Biotinylated-Degrasyn (10 μM) was incubated with lysates from MM-1 cells (10 mg total protein) and interactive proteins were assessed by affinity recovery using Streptavidin-conjugated beads to bind biotinylated-Degrasyn. Free Degrasyn (10 μM) was incubated with biotinylated-Degrasyn in a parallel experiment to assist in identifying specific protein:Degrasyn interactions. Affinity complexes were washed and Streptavidin-Bio-Deg interaction proteins were assessed by disrupting protein complexes with SDS-sample buffer and resolving proteins by SDS-PAGE. The resolved proteins were detected by silver-staining the gel. Protein bands present in the biotinylated-Degrasyn sample that were absent in samples co-incubated with free Degrasyn were identified and cut from the gel. A 38 kDa protein band was prominent in this assessment and was subjected to in gel trypsinization and identification of HPLC resolved tryptic peptides by tandem mass spectroscopy analysis (David Hawke, Department of Molecular Pathology, M.D. Anderson Cancer Center). This analysis identified nucleophosmin (NPM) as a Degrasyn interactive protein.
To further assess the interaction between NPM and Degrasyn, biotinylated-Degrasyn/streptavidin beads were incubated with MM-1 (left) or K562 (right) cell lysates. In parallel, lysates were co-incubated with free Degrasyn to determine the specificity of the interaction with NPM. […]

T1 sequence (P01106 16-454 limits assumed): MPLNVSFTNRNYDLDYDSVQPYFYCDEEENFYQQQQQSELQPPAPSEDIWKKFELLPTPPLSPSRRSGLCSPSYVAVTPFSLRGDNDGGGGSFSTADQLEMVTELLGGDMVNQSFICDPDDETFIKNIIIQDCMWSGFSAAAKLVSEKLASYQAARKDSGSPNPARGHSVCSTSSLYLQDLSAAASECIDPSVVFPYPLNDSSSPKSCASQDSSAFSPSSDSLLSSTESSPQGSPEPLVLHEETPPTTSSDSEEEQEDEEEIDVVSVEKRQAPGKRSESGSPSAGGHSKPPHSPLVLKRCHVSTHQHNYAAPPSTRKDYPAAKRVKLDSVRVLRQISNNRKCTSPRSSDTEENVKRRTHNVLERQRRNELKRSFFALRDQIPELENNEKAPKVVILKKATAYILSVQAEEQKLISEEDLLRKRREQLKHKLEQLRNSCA
T2 sequence (P06748 whole entry): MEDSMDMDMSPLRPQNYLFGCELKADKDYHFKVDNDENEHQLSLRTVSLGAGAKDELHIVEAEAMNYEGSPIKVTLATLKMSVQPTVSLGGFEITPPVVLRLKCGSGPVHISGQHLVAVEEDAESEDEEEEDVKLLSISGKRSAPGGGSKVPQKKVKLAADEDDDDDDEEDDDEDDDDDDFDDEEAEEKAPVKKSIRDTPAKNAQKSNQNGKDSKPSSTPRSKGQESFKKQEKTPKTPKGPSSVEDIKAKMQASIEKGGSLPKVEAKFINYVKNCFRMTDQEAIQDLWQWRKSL

## N#C/C(=C\c1cccc(Br)n1)C(=O)NC(c1ccccc1)C1CC1 (stereo not drawn) [BDT-16]
[1]
  Tyrosine phosphorylated protein species (~70 kDa, ~55 kDa): more potently stimulates tyrosine phosphorylation
MM-1 cells; FIG. 28
  Anti-tumor activity relative to WP1130: greater anti-tumor activity than WP1130

## CC(C)C[C@H](NC(=O)[C@H](Cc1ccccc1)NC(=O)c1cnccn1)B(O)O [PS341, reference compound]
c-myc
  Effect of inhibitor pretreatment on Degrasyn-mediated c-myc protein reduction: block Degrasyn-mediated c-myc protein reduction

## 2-Propenamide, 2-cyano-3-(3-bromo 2-pyridinyl)-N-(2-phenyl-2-ethylene)-1-biotinyl ester-(E) [Bio-Degrasyn]
K562 cells
  IC50: 5.6 µM
c-myc; FIG. 21, 1 h
  c-myc protein levels: reduced c-myc protein levels
Nucleophosmin (NPM)
  Interaction with NPM: recovered NPM from cell lysates
MM-1 cells; FIG. 21, anti-tumor activity, read-out: IC50 for MM-1 cells
  IC50: 3.8 µM
MM-1 cells; MM-1 and K562 cells, relative to Degrasyn
  Reduction of anti-tumor activity by biotinylation: ~2 fold

## CC(C)C[C@@H](C=O)NC(=O)[C@H](CC(C)C)NC(=O)[C@H](CC(C)C)NC(=O)OCc1ccccc1 [MG132, reference compound] (Cbz-Leu-Leu-Leu-aldehyde)
c-myc
  Effect of inhibitor pretreatment on Degrasyn-mediated c-myc protein reduction: block Degrasyn-mediated c-myc protein reduction
